Columns and labels:
[1] = test system: A549; assay: MTS cell viability (cytotoxicity) assay, 2D cell culture; type: cell-based; details: Homo sapiens, A549, 2D cell culture, 72 h, ±SD, N = 2, read-out: IC50 antitumor activity A549 2D
Method: (§1) Compounds are diluted 1:3. 500 nL (for 2 D cell culture) or 400 nL (for 3 D cell culture) of compound were transferred from mother plate to test plate by using Mosquito (TTP labtech). DMSO percentage in test concentrations was 0.5 − 1.0%. Starting concentration of the test compounds and standard compound doxorubicin was 50 µM (2 D cell culture) or 100 µM (3 D cell culture).
(§2) Cells were grown in 96 well cell star polystyrene plates. 10,000 cells/well were seeded in wells 4 h prior the treatment with different compounds concentrations and incubated for 72 h. A cell viability assay was performed according to the manufacturer’s instruction, using CellTiter 96 aqueous solution, MTS kit (Promega, Madison, WI, USA). After 0.5–2 h of cell incubation with MTS in 2 D cell culture, the plates were read using PE EnVision absorbance at 490 nm. […] Since we prefer homogeneous assays (mix and read procedures) and therefore MTS is more practical (one step less than MTT). MTS is more sensitive and accurate in comparison with MTT assay.
(§3) Calculation of IC50 data, curves and QC analysis is made by using Excel tools and GraphPadPrism software (La Jolla, CA), v. […] QC criteria parameters (Z', S:B, R2, HillSlope) were checked for every IC50 curve.

[2] = test system: HCC827; assay: as above; type: cell-based; details: Homo sapiens; HCC827, 2D cell culture, 72 h, MTS; ±SD, N = 2; read-out: IC50 antitumor activity HCC827 2D
Method: as §1, §2, §3

[3] = test system: NCI-H358; assay: as above; type: cell-based; details: Homo sapiens; NCI-H358, 2D cell culture, 72 h, MTS; ±SD, N = 2; read-out: IC50 antitumor activity NCI-H358 2D
Method: as §1, §2, §3

[4] = test system: HCC827; assay: BrdU proliferation assay, 2D cell culture; type: cell-based; details: Homo sapiens, HCC827, 2D cell culture, ±SD, N = 2
Method: as §2
(§4) Proliferation assay was performed using Cell Proliferation ELISA, BrdU (Sigma, St. Louis, MO, USA). Briefly, 48 h hours after compound addition, 10 µM of BrdU was added to each well and incubated for following 24 h. After incubation, single cell suspension was made for 3 D cell culture in the new 96 well plate. Plates were centrifuged and supernatants were removed from each plate (for 2 D and 3 D cell culture) followed by 60 min incubation at 60° C. The rest of the proliferation assay was performed according to the manufacturer instructions.
as §3

[5] = test system: NCI-H358; assay: BrdU proliferation assay, 2D cell culture; type: cell-based; details: Homo sapiens, NCI-H358, 2D cell culture, ±SD, N = 2
Method: as §2, §4, §3

[6] = Metabolic stability in liver microsomes; type: in vitro ADME; details: 60 min
Method: Tested compounds (final concentration of 1 µM, 0.1% DMSO), as well as testosterone and propranolol as positive controls and caffeine as negative control were incubated in phosphate buffer (50 mM, pH 7.4) for 60 min at 37 °C with liver microsomes (human and mouse) in the absence and presence of the NADPH cofactor. The NADPH generating system was prepared in phosphate buffer and consisted of nicotinamide adenine dinucleotide phosphate (NADP, 0.38 mM), glucose-6-phosphate (1.49 mM), glucose-6-phosphate dehydrogenase (1.5 U) and magnesium chloride (0.1 mM). Aliquots were taken at different time points (0, 10, 20, 30, 45 and 60 min) and reaction was terminated by addition of a MeCN/MeOH (2:1) mixture, containing diclofenac as internal standard. Samples were then centrifuged (at 4500 rpm, at 4 °C, for 30 min) and resulting supernatants were subjected to LC-MS/MS analysis. The in vitro half life (t½) was determined from the slope of the linear regression of ln % parent compound remaining versus incubation time. In vitro intrinsic clearance, expressed as µl/min/mg liver, was determined from in vitro half life (t½) and normalised for the protein concentration in the incubation mixture. Predicted in vivo hepatic clearance was determined from in vitro intrinsic clearance assuming 52.5 mg of protein/g of liver and using constant values for liver weight/body weight [g/kg] (25.7 for human, 87.5 for mouse) and liver blood flow (LBF) [ml/min/kg] (21 for human and 131 for mouse).
All ADME samples were analysed on a Sciex API 4000 or Sciex API4500 Triple Quadrupole Mass Spectrometer (Sciex, Framingham, MA, USA) coupled to a UHPLC System (Shimadzu Nexera X2; Shimadzu, Kyoto, Japan). Samples were injected onto an UPLC column (HALO2 C18, 2.1 × 20 mm, 2 µm or Phenomenex Luna Omega Polar C18, 30 × 2.1 mm, 1.6 µm) and eluted with a gradient at temperature of 50 °C. The mobile phase was composed of acetonitrile (with 0.1% formic acid) and 0.1% formic acid in deionised water. A total run time was 1 or 1.5 min, with the flow rate of 0.7 ml/min (under gradient conditions). A positive ion mode with turbo spray, an ion source temperature of 500 °C and a dwell time of 150 ms were utilised for mass spectrometric detection. Multiple reaction monitoring (MRM) was used at the specific transitions for each compound/control tested: compound 5c: 361.9 → 304.9; compound 5d: 344.8 → 287.9; compound 5e: 349.8 → 292.9; compound 5 g: 350.8 → 293.9; compound 5 h: 344.0 → 286.9; compound 6a: 276.9 → 220.0; compound 5 b: 319.0 → 262.0; compound 6 b: 302.1 → 245.1; compound 6c: 344.9 → 288.0; compound 6d: 333.0 → 276.0; compound 6e: 316.1 → 259.0; compound 6f: 327.1 → 270.0; compound 6 g: 377.1 → 320.1; testosterone: 289.3→ 97.1; propranolol: 260.1 → 182.8; caffeine: 195.2 → 138.1; acebutolol: 337.2 → 116.2, nicardipine: 480.2 → 315.0; verapamil: 455.4 → 165.1; amprenavir: 506.2 → 245.4; diclofenac: 296.1 → 213.7 or 296.2 → 215.3; eucatropine: 292.2 → 109.1; benfluorex: 352.1 → 230.3, and warfarin: 309.2 → 163.2

Row | IC50 [4] | IC50 [5] | Microsomes (1 µM) Predicted in vivo hep CL, Human [6] | Microsomes (1 µM) Predicted in vivo hep CL, Mouse [6] | Structure (SMILES) | IC50 [1] | IC50 [2] | IC50 [3]
1 | > 50 µM | > 50 µM | <30 %LBF | <30 %LBF | Cl.N#Cc1ccc(-c2nc3ccc(C4=NCCCN4)cc3s2)cc1 [Compound 5b, 2–(4-Cyanophenyl)-6–(3,4,5,6-tetrahydropyrimidin-1-ium-2-yl)benzothiazole chloride] | > 50 µM | > 50 µM | > 50 µM
2 | 15 ± 2.18 µM | 16 ± 4.14 µM | <30 %LBF | <30 %LBF | Cl.FC(F)(F)c1ccc(-c2nc3ccc(C4=NCCCN4)cc3s2)cc1 [Compound 5c, 2–(4-Trifluoromethylphenyl)-6–(3,4,5,6-tetrahydropyrimidin-1-ium-2-yl)benzothiazole chloride] | 34 ± 8.65 µM | 7 ± 0.45 µM | 23 ± 0.79 µM
3 | 11 ± 0.17 µM | 9 ± 0.31 µM | <30 %LBF | <30 %LBF | Cl.c1ccc2nc(-c3nc4ccc(C5=NCCCN5)cc4s3)ccc2c1 [Compound 5d, 2-(Quinoline-2-yl)-6–(3,4,5,6-tetrahydropyrimidin-1-ium-2-yl)benzothiazole chloride] | > 50 µM | 14 ± 2.09 µM | 20 ± 2.53 µM
4 | 10 ± 1.21 µM | 9 ± 0.65 µM | <30 %LBF |  | Cl.c1ccc2sc(-c3nc4ccc(C5=NCCCN5)cc4s3)cc2c1 [Compound 5e, 2-(Benzo[b]thiophen-2-yl)-6–(3,4,5,6-tetrahydropyrimidin-1-ium-2-yl)benzothiazole chloride] | 36 ± 6.37 µM | 7 ± 0.12 µM | 16 ± 0.98 µM
5 | 18 ± 0.76 µM | 13 ± 0.45 µM | <30 %LBF | <30 %LBF | Cl.c1ccc2sc(-c3nc4ccc(C5=NCCCN5)cc4s3)nc2c1 [Compound 5g, 2-(Benzothiazole-2-yl)-6–(3,4,5,6-tetrahydropyrimidin-1-ium-2-yl)benzothiazole chloride] | 41 ± 0.54 µM | 19 ± 2.21 µM | 26 ± 0.3 µM
6 | 9 ± 0.83 µM | 7 ± 0.07 µM | <30 %LBF | <30 %LBF | Cl.c1ccc2cc(-c3nc4ccc(C5=NCCCN5)cc4s3)ccc2c1 [Compound 5h, 2-(Naphthalene-2-yl)-6–(3,4,5,6-tetrahydropyrimidin-1-ium-2-yl)benzothiazole chloride] | 38 ± 3.68 µM | 6 ± 0.05 µM | 10 ± 1 µM
7 | 7 ± 0.35 µM | 7 ± 0.3 µM | 56 %LBF | 41 %LBF | c1ccc(-c2nc3cc(C4=NCCCN4)ccc3[nH]2)cc1 [Compound 6a, 2-Phenyl-5(6)–(3,4,5,6-tetrahydropyrimidin-1-ium-2-yl)benzimidazole chloride] | 15 ± 1.7 µM | 6 ± 0.5 µM | 13 ± 0.28 µM
8 | > 50 µM | > 50 µM | <30 %LBF | <30 %LBF | N#Cc1ccc(-c2nc3cc(C4=NCCCN4)ccc3[nH]2)cc1 [Compound 6b, 2–(4-Cyanophenyl)-5(6)–(3,4,5,6-tetrahydropyrimidin-1-ium-2-yl)benzimidazole chloride] | > 50 µM | > 50 µM | > 50 µM
9 | > 50 µM | > 50 µM | <30 %LBF | <30 %LBF | FC(F)(F)c1ccc(-c2nc3cc(C4=NCCCN4)ccc3[nH]2)cc1 [Compound 6c, 2–(4-Trifluoromethylphenyl)-5(6)–(3,4,5,6-tetrahydropyrimidin-1-ium-2-yl)benzimidazole chloride] | > 50 µM | > 50 µM | > 50 µM
10 | > 50 µM | > 50 µM | <30 %LBF | 71 %LBF | c1ccc2sc(-c3nc4cc(C5=NCCCN5)ccc4[nH]3)cc2c1 [Compound 6d, 2-(Benzo[b]thiophen-2-yl)-5(6)–(3,4,5,6-tetrahydropyrimidin-1-ium-2-yl)benzimidazole chloride] | > 50 µM | > 50 µM | > 50 µM
11 | > 50 µM | > 50 µM | <30 %LBF | 78 %LBF | c1ccc2c(-c3nc4ccc(C5=NCCCN5)cc4[nH]3)c[nH]c2c1 [Compound 6e, 2-(1H-Indol-3-yl)-5(6)–(3,4,5,6-tetrahydropyrimidin-1-ium-2-yl)benzimidazole chloride] | > 50 µM | > 50 µM | > 50 µM
12 | > 50 µM | > 50 µM | <30 %LBF | 77 %LBF | c1ccc2cc(-c3nc4cc(C5=NCCCN5)ccc4[nH]3)ccc2c1 [Compound 6f, 2-(Naphthalene-2-yl)-5(6)–(3,4,5,6-tetrahydropyrimidin-1-ium-2-yl)benzimidazole chloride] | > 50 µM | > 50 µM | > 50 µM

Row | Structure (SMILES) | IC50 [4] | IC50 [5] | Microsomes (1 µM) Predicted in vivo hep CL, Human [6] | Microsomes (1 µM) Predicted in vivo hep CL, Mouse [6] | IC50 [1] | IC50 [2] | IC50 [3]
13 | c1ccc2c(c1)cc(-c1nc3cc(C4=NCCCN4)ccc3[nH]1)c1ccccc12 [Compound 6g, 2-(Phenanthrene-9-yl)-5(6)–(3,4,5,6-tetrahydropyrimidin-1-ium-2-yl)benzimidazole chloride] | > 50 µM | > 50 µM | <30 %LBF |  | > 50 µM | > 50 µM | > 50 µM

— article PMC7801115, “Preclinical in vitro screening of newly synthesised amidino substituted benzimidazoles and benzothiazoles” (Journal of Enzyme Inhibition and Medicinal Chemistry, 2021)
